Test results as given in patent publication US11304944B2, “MetAP2 inhibitors and methods of treating obesity” (SynDevRx, Inc., priority 2013, dated 2022).

Assays:
[1] = in combination with paclitaxel, dosed three times per week; cited from earlier work
DIO C57Bl6 mice [2] = assay: In vivo testing DIO C57Bl6 mice: weight changes, food consumption, body composition (Compound 16 vs TNP-470)
Experimental: C57Bl6 male mice (N=6) thirteen weeks old with an average of weight of 34 g were ad libitum fed TD.06414 a high fat diet composed of 60% Kcal from fat (Harlan diet). On study day 1 animals were randomized into groups so that the average weight of each group was 33.9 g. […] Animals were weighed every other day. Food consumption was measured weekly. On day 33 gross pathology was performed to determine body composition.

DIO C57Bl6 mice [3] = assay: Efficacy of various compounds in DIO mouse model (body weight versus time); format: in vivo; settings: 2 mg/kg q4d sc; for BW change vs. vehicle: day 26
Experimental: On study day 1 animals were randomized into groups so that the average weight of the mice in each group was 47 g. The mice were treated with either phosphate buffered saline (vehicle), or compounds as listed in Table 19 dissolved in vehicle (dorsal, subcutaneous administration).

[4] = qod (Cmpd 16 1 mg/kg qod), Day 33

Compound	MTD [1]	Body Weight Day 33 (DIO C57Bl6 mice [2]; 0.5 mg/kg/day, qod, sc)	B.W. (DIO C57Bl6 mice [2]; [4])	Epididymal Fat (DIO C57Bl6 mice [2]; [4])	Inguinal Fat (DIO C57Bl6 mice [2]; [4])	Liver (DIO C57Bl6 mice [2]; [4])	Retroperitoneal Fat (DIO C57Bl6 mice [2]; [4])	Total Fat (DIO C57Bl6 mice [2]; [4])	Group Avg. BW, Study Day 1 (DIO C57Bl6 mice [3])	Group Avg. BW, Study Day 7 (DIO C57Bl6 mice [3])	Group Avg. BW, Study Day 15 (DIO C57Bl6 mice [3])	Group Avg. BW, Study Day 21 (DIO C57Bl6 mice [3])	Group Avg. BW, Study Day 26 (DIO C57Bl6 mice [3])	BW change vs. vehicle (DIO C57Bl6 mice [3])
CO[C@@H]1[C@H](OC(=O)NC(=O)CCl)CC[C@]2(CO2)[C@H]1[C@@]1(C)O[C@@H]1CC=C(C)C [TNP-470, chloroacetylcarbamoylfumagillol, reference compound]	60 mg/m2	34.1 g	34.1 grams	1.54 grams	1.21 grams	1.15 grams	0.80 grams	3.55 grams	–	–	–	–	–	–
poly[HPMA-co-MA-GFLG-N-(cis-4-aminocyclohexyl)carbamoylfumagillol] [Compound cis-16]	–	–	–	–	–	–	–	–	47.0 g	42.7 g	42.6 g	40.9 g	40.6 g	−12.0%
poly[HPMA-co-MA-GFLG-NH-2-[(2-(2-aminoethoxy)ethoxy)ethyl]carbamoylfumagillol] [Compound bb]	–	–	–	–	–	–	–	–	47.0 g	43.6 g	43.9 g	42.2 g	42.5 g	−7.8%
